# Assay results published in US9498483B2, “2,3,5-trisubstituted thiophene compounds and uses thereof” (priority 2010, dated 2016).
# Legend:
# [1] = system: HCV replicon I389luc-ubi-neo/NS3-3′/ET in ET (Huh-lucubineo-ET) cells; assay: Replicon assay (Biological Example 2), luciferase readout; type: cell-based; details: Hepatitis C virus
# Summary of the method: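 EC50 values come from Hill fits of % inhibition of replicon-driven firefly luciferase, relative to no-compound wells. Compounds were serially diluted (10 points, 3-fold, 0.1 nM–50 μM final, 0.5% DMSO) onto ET replicon cells and read after 48 h.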
# HCV polymerase = target: T1, HCV polymerase (Hepatitis C virus genotype 1b, UniProt Q9WMX2); assay: Polymerase assay of Biological Example 1 (IC50 values of Table 3); type: biochemical; details: IC50 values of Table 3, polymerase assay of Biological Example 1; read-out: NS5B-enzyme3
# T1 construct: (His)6 (C); made in house; host or cells: XL-1 cells (E. coli, by own knowledge)
# [2] = ET cells, luciferase activity 48 hours after compound
Compound,IC50 ([1]; between 100 nM and 5.0 uM) [nM],IC50 (HCV polymerase) [nM],"IC50 [1, 2] [nM]"
"CCc1ccc(-c2cc(N3C(=O)CCCC3C3CCCCC3)c(C(=O)O)s2)cc1 (stereo not drawn) [Compound 72, 3-(2-Cyclohexyl-6-oxo-piperidin-1-yl)-5-(4-ethyl-phenyl)-thiophene-2-carboxylic acid]",100 to 5000,64,
"C[C@@H]1CCCCN1c1ccc(S(=O)(=O)N2CC(=O)N(c3cc(-c4ccccc4)sc3C(=O)O)[C@H](C3CCCCC3)C2)cn1 [Compound 183, 3-[(R)-2-Cyclohexyl-4-((R)-2-methyl-3,4,5,6-tetrahydro-2H-[1,2′]bipyridinyl-5′-sulfonyl)-6-oxo-piperazin-1-yl]-5-phenyl-thiophene-2-carboxylic acid]",,1.8,≤ 100
"Cc1ccc(-c2cc(N3C(=O)CN(S(=O)(=O)c4ccc(N5CC6CCC(C5)O6)nc4)C[C@H]3C3CCCCC3)c(C(=O)O)s2)cc1 [Compound 198, 3-{(R)-2-Cyclohexyl-4-[6-(8-oxa-3-aza-bicyclo[3.2.1]oct-3-yl)-pyridine-3-sulfonyl]-6-oxo-piperazin-1-yl}-5-p-tolyl-thiophene-2-carboxylic acid]",,1,≤ 100
"CC(C)S(=O)(=O)N1CC(=O)N(c2cc(-c3ccccc3)sc2C(=O)O)C(C2CCCCC2)C1 (stereo not drawn) [Compound 37, 3-[2-Cyclohexyl-6-oxo-4-(propane-2-sulfonyl)-piperazin-1-yl]-5-phenyl-thiophene-2-carboxylic acid]",100 to 5000,72,
"C[C@H]1CCCN1c1ccc(S(=O)(=O)N2CC(=O)N(c3cc(-c4ccccc4)sc3C(=O)O)C(C3CCCCC3)C2)cn1 (stereo partly drawn) [Compound 119, 3-{2-Cyclohexyl-4-[6-((S)-2-methyl-pyrrolidin-1-yl)-pyridine-3-sulfonyl]-6-oxo-piperazin-1-yl}-5-phenyl-thiophene-2-carboxylic acid]",,9,≤ 100
"CNC(=O)c1ccc(S(=O)(=O)N2CC(=O)N(c3cc(C#CC(C)(C)C)sc3C(=O)O)[C@H](C3CCCCC3)C2)cc1 [Compound 253, 3-[(R)-2-Cyclohexyl-4-(4-methylcarbamoyl-benzenesulfonyl)-6-oxo-piperazin-1-yl]-5-(3,3-dimethyl-but-1-ynyl)-thiophene-2-carboxylic acid]",,2,≤ 100
"Cc1ccc(-c2cc(N3C(=O)CN(S(=O)(=O)c4cnc(C)c(C)c4)C[C@H]3C3CCCCC3)c(C(=O)O)s2)cc1 [Compound 305, 3-[(R)-2-Cyclohexyl-4-(5,6-dimethyl-pyridine-3-sulfonyl)-6-oxo-piperazin-1-yl]-5-p-tolyl-thiophene-2-carboxylic acid]",,4,≤ 100
"CN(C)C1CCCN(c2ccc(S(=O)(=O)N3CC(=O)N(c4cc(-c5ccccc5)sc4C(=O)O)[C@H](C4CCCCC4)C3)cn2)C1 (stereo partly drawn) [Compound 155, 3-[(R)-2-Cyclohexyl-4-(3-dimethylamino-3,4,5,6-tetrahydro-2H-[1,2′]bipyridinyl-5′-sulfonyl)-6-oxo-piperazin-1-yl]-5-phenyl-thiophene-2-carboxylic acid]",,3,≤ 100
"Cc1ccc(-c2cc(N3C(=O)CN(S(=O)(=O)c4cnn(C)c4)C[C@H]3C3CCCCC3)c(C(=O)O)s2)cc1 [Compound 295, 3-[(R)-2-Cyclohexyl-4-(1-methyl-1H-pyrazole-4-sulfonyl)-6-oxo-piperazin-1-yl]-5-p-tolyl-thiophene-2-carboxylic acid]",,4,≤ 100
"CC(C)(C)OC(=O)N[C@@H]1CCN(c2ccc(S(=O)(=O)N3CC(=O)N(c4cc(-c5ccccc5)sc4C(=O)O)[C@H](C4CCCCC4)C3)cn2)C1 [Compound 146, 3-{(R)-4-[6-((R)-3-tert-Butoxycarbonyl-amino-pyrrolidin-1-yl)-pyridine-3-sulfonyl]-2-cyclohexyl-6-oxo-piperazin-1-yl}-5-phenyl-thiophene-2-carboxylic acid]",,2,≤ 100
"CC(C)(C)C#Cc1cc(N2C(=O)[C@@H](CCCO)OC[C@H]2C2CCCCC2)c(C(=O)O)s1 (single isomer, unassigned) [Compound 3]",,4,≤ 100
"CC(C)(C)C#Cc1cc(N2C(=O)CCCC[C@H]2C2CCCCC2)c(C(=O)O)s1 [Compound 335, 3-((S)-2-Cyclohexyl-7-oxo-azepan-1-yl)-5-(3,3-dimethyl-but-1-ynyl)-thiophene-2-carboxylic acid]",100 to 5000,24,
"CN1CCOc2cc(S(=O)(=O)N3CC(=O)N(c4cc(-c5ccccc5)sc4C(=O)O)C(C4CCCCC4)C3)cnc21 (stereo not drawn) [Compound 99, 3-[2-Cyclohexyl-4-(4-methyl-3,4-dihydro-2H-pyrido[3,2-b][1,4]oxazine-7-sulfonyl)-6-oxo-piperazin-1-yl]-5-phenyl-thiophene-2-carboxylic acid]",,2,≤ 100
"O=C(O)c1sc(-c2ccccc2)cc1N1C(=O)CN(S(=O)(=O)C2CCCC2)CC1C1CCCCC1 (stereo not drawn) [Compound 42, 3-(2-Cyclohexyl-4-cyclopentanesulfonyl-6-oxo-piperazin-1-yl)-5-phenyl-thiophene-2-carboxylic acid]",100 to 5000,148,
"CC(C)(C)C#Cc1cc(N2C(=O)CN(S(=O)(=O)c3cn[nH]c3)C[C@H]2C2CCCCC2)c(C(=O)O)s1 [Compound 241, 3-[(R)-2-Cyclohexyl-6-oxo-4-(1H-pyrazole-4-sulfonyl)-piperazin-1-yl]-5-(3,3-dimethyl-but-1-ynyl)-thiophene-2-carboxylic acid]",,1,≤ 100
"CC1CCC(C)N1c1ccc(S(=O)(=O)N2CC(=O)N(c3cc(-c4ccccc4)sc3C(=O)O)C(C3CCCCC3)C2)cn1 (stereo not drawn) [Compound 92, 3-{2-Cyclohexyl-4-[6-(2,5-dimethyl-pyrrolidin-1-yl)-pyridine-3-sulfonyl]-6-oxo-piperazin-1-yl}-5-phenyl-thiophene-2-carboxylic acid]",,4,≤ 100
"O=C(O)c1sc(-c2ccccc2)cc1N1C(=O)CN(S(=O)(=O)c2ccc(N3CCNCC3)nc2)CC1C1CCCCC1 (stereo not drawn) [Compound 88, 3-[2-Cyclohexyl-6-oxo-4-(6-piperazin-1-yl-pyridine-3-sulfonyl)-piperazin-1-yl]-5-phenyl-thiophene-2-carboxylic acid]",,2.13,≤ 100
"O=C(O)c1sc(-c2ccccc2)cc1N1C(=O)CN(S(=O)(=O)c2ccc(-c3cncnc3)nc2)C[C@H]1C1CCCCC1 [Compound 206, 3-[(R)-2-Cyclohexyl-6-oxo-4-(6-pyrimidin-5-yl-pyridine-3-sulfonyl)-piperazin-1-yl]-5-phenyl-thiophene-2-carboxylic acid]",100 to 5000,1,
"CC(C)(C)C#Cc1cc(N2C(=O)[C@@H](CC(O)CO)OC[C@H]2C2CCCCC2)c(C(=O)O)s1 (stereo partly drawn) [Compound 10, 3-[(2R,5R)-5-Cyclohexyl-2-(2,3-dihydroxy-propyl)-3-oxo-morpholin-4-yl]-5-(3,3-dimethyl-but-1-ynyl)-thiophene-2-carboxylic acid]",,3,≤ 100
"O=C(O)c1sc(-c2ccccc2)cc1N1C(=O)CN(S(=O)(=O)c2ccc(F)cc2)CC1C1CCCCC1 (stereo not drawn) [Compound 109, 3-[2-Cyclohexyl-4-(4-fluoro-benzenesulfonyl)-6-oxo-piperazin-1-yl]-5-phenyl-thiophene-2-carboxylic acid]",100 to 5000,30,
"O=C(O)c1sc(-c2ccccc2)cc1N1C(=O)CN(S(=O)(=O)c2ccc(N3CC[C@H](F)C3)nc2)CC1C1CCCCC1 (stereo partly drawn) [Compound 121, 3-{2-Cyclohexyl-4-[6-((S)-3-fluoro-pyrrolidin-1-yl)-pyridine-3-sulfonyl]-6-oxo-piperazin-1-yl}-5-phenyl-thiophene-2-carboxylic acid]",,7,≤ 100
"CC(C)(C)C#Cc1cc(N2C(=O)CN(S(=O)(=O)C3CC3)C[C@H]2C2CCCCC2)c(C(=O)O)s1 [Compound 245, 3-((R)-2-Cyclohexyl-4-cyclopropanesulfonyl-6-oxo-piperazin-1-yl)-5-(3,3-dimethyl-but-1-ynyl)-thiophene-2-carboxylic acid]",100 to 5000,5,
"O=C(O)c1sc(-c2ccccc2)cc1N1C(=O)CN(S(=O)(=O)c2ccc(N(CCO)CCO)nc2)CC1C1CCCCC1 (stereo not drawn) [Compound 83, 3-(4-{6-[Bis-(2-hydroxy-ethyl)-amino]-pyridine-3-sulfonyl}-2-cyclohexyl-6-oxo-piperazin-1-yl)-5-phenyl-thiophene-2-carboxylic acid]",100 to 5000,3,
"O=C(O)c1sc(-c2ccccc2)cc1N1C(=O)CN(S(=O)(=O)c2ccc(OC(F)F)cc2)CC1C1CCCCC1 (stereo not drawn) [Compound 106, 3-[2-Cyclohexyl-4-(4-difluoromethoxy-benzenesulfonyl)-6-oxo-piperazin-1-yl]-5-phenyl-thiophene-2-carboxylic acid]",100 to 5000,14,
"O=C(O)c1sc(-c2ccccc2)cc1N1C(=O)CCC1C1CCCCC1 (stereo not drawn) [Compound 1, 3-(2-Cyclohexyl-5-oxo-pyrrolidin-1-yl)-5-phenyl-thiophene-2-carboxylic acid]",100 to 5000,181,
"O=C(O)c1sc(-c2ccccc2)cc1N1C(=O)CN(S(=O)(=O)c2ccc(F)c(C(F)(F)F)c2)CC1C1CCCCC1 (stereo not drawn) [Compound 66, 3-[2-Cyclohexyl-4-(4-fluoro-3-trifluoromethyl-benzenesulfonyl)-6-oxo-piperazin-1-yl]-5-phenyl-thiophene-2-carboxylic acid]",100 to 5000,49,
"O=C(O)c1sc(-c2ccccc2)cc1N1C(=O)CN(S(=O)(=O)c2ccc(N3CC4CCC(C3)O4)nc2)C[C@H]1C1CCCCC1 [Compound 216, 3-{(R)-2-Cyclohexyl-4-[6-(8-oxa-3-aza-bicyclo[3.2.1]oct-3-yl)-pyridine-3-sulfonyl]-6-oxo-piperazin-1-yl}-5-phenyl-thiophene-2-carboxylic acid]",,1,≤ 100
